# Experimental data taken from paper PMC11653397, “Elucidating the Metabolism of Chiral PCB95 in Wildtype and Transgenic Mouse Models with Altered Cytochrome P450 Enzymes Using Intestinal Content Screening” (Chemical Research in Toxicology, 2024).
# Values joined by “and” are separate entries in the source; they are usually repeats but may differ in a detail not shown here. Identical values can stand only once. Like-named read-outs stand apart in the source and are kept apart here.
# How the values were obtained:
# [1] = GC-MS/MS levels of PCB95 and total hydroxylated metabolites in intestinal content of orally exposed mice; settings: for concentration at 24 h: mouse, intestinal content (distal colon and rectum), po, 1 mg/kg
# Method: The intestinal content samples used in this study were generated as part of a published study of the atropselective disposition of PCB95 and its hydroxylated metabolites in mice.[48] […] This PCB dose is frequently used in PCB developmental neurotoxicity studies in rodent models.[21],[49]−[52] Blank tissue samples to assess the background contamination with PCB95 were generated in parallel by administering corn oil alone to mice (1–3 mice per group). The animals were euthanized 24 h after exposure, and intestinal content samples from the dissected distal colon and rectum were collected. Samples were stored at −80 °C in separate plastic bags and shipped on dry ice to the University of Iowa for analysis.
# PCB95 and total OH-PCB95 metabolite levels were determined in intestinal content samples after deconjugation of sulfate and glucuronide conjugates using published methods with modifications.[53] Briefly, intestinal content samples (50 ± 22 mg, n = 38) were homogenized with a TissueRuptor (Qiagen, Hilden, Germany) in 3 mL of 0.2 M sodium acetate buffer (pH 5) in glass tubes and spiked with 4-PCB52 sulfate (100 ng in DMSO) as a surrogate standard. After adding 50 μL of sulfatase (type H-2 from Helix pomatia, Sigma-Aldrich, Burlington, MA, USA), the samples were kept at 37 °C for 16 h in a shaking water bath. Samples were quenched with 1 mL of 6 M HCl, and the surrogate standards (50 ng of PCB117 in isooctane and 50 ng of 4′-159 in methanol) were added to the incubation system. Subsequently, 5 mL of 2-propanol and 5 mL of a 1:1 hexane–MTBE mixture (v/v) were added. The samples were inverted for 5 min and centrifuged at 1690g for 5 min to facilitate the phase separation. Next, the organic phases were transferred to new glass tubes with 3 mL of 1% KCl solution, the aqueous phases were re-extracted with 3 mL of hexane, and the organic phases were combined with the above extract. After inverting and centrifugation, the organic phases were collected, and the aqueous KCl phases were re-extracted with 3 mL of hexane. The combined extracts were evaporated to near dryness using a Savant SpeedVac SPD210 vacuum concentrator (Thermo Scientific, Waltham, MA, USA) coupled with an RVT5105 refrigerated vapor trap (Thermo Scientific, Waltham, MA, USA), and each sample was reconstituted with 0.5 mL of hexane.
# Five drops of methanol and 0.5 mL of diazomethane (about 5 mmol) in diethyl ether were added to the intestinal content extracts to derivatize the OH-PCBs.[43] The samples were stored at 4 °C for approximately 16 h for derivatization, and excess diazomethane was removed under a gentle stream of nitrogen in a fume hood. The extract was reconstituted to 0.5 mL of dichloromethane and was loaded onto a glass SPE cartridge filled with 2 g of acidified silica gel (silica gel/H2SO4, 2:1, w/w) with 0.2 g of deactivated silica gel on the bottom.[14] The PCB and metabolites were eluted from the SPE cartridge with 14 mL of dichloromethane; the eluent was concentrated with a Savant SpeedVac SPD210 vacuum concentrator (Thermo Scientific) to near dryness, and the solvent was exchanged to 4 mL of hexane. The extracts were treated with 4 mL of concentrated sulfuric acid for further lipid removal.[14] The organic phase was concentrated to near dryness with a Savant SpeedVac SPD210 vacuum concentrator (Thermo Scientific) and spiked with an internal standard (50 ng of PCB204 in isooctane) for gas chromatographic quantification of PCB95 and its hydroxylated metabolites (as methylated derivatives).
# PCB95 and metabolite determinations were conducted on an Agilent 7890B gas chromatograph equipped with an Agilent 7000D Triple Quad and an Agilent 7693 autosampler in the multiple reaction monitoring setting (GC–MS/MS).[14] Gas chromatographic separations were performed with an SPB-Octyl capillary column (30 m length, […], 0.25 μm film thickness; Supelco, Bellefonte, PA, USA).
# CYP2A6 = system: CYP2A6; parameters: method as in PMID 30576102, PMID 27989147; settings: pooled human liver microsomes, recombinant cytochrome P450 enzymes; cited from earlier work
# [2] = mouse hepatic microsomes; cited from earlier work
# [3] = parameters: method as in doi:10.1016/0045-6535(75)90032-6; settings: rats exposed orally to PCB95; cited from earlier work
# [4] = parameters: method as in doi:10.1016/0045-6535(75)90032-6; settings: mice exposed orally to PCB95; cited from earlier work
# [5] = rat hepatic microsomes; cited from earlier work
# [6] = Atropselective GC-ECD analysis (enantiomeric fraction) of PCB95 in intestinal content; assay type: in vivo, mice; settings: for Enantiomeric fraction (EF) of PCB95 residues in the intestinal content: EF=AE1/(AE1+AE2), racemic standard EF 0.498±0.004, oral 1.0 mg/kg bw, 24 h
# Method: Atropselective analyses of PCB95 were performed using an Agilent 7890A gas chromatograph with a ^63Ni-μECD detector and a Chirasil-Dex CB capillary column (25 m length, 250 μm inner diameter, 0.25 μm film thickness; Agilent, Santa Clara, CA, USA).[52] The following temperature program was used: 50 °C, hold for 1 min, 10 °C/min to 150 °C, hold for 65 min, 15 °C/min to 200 °C, and hold for 15 min. The injector and detector temperatures were 250 °C. Helium was used as carrier gas with a flow rate of 3.0 mL/min; argon-methane 5% was used as makeup gas with a 60 mL/min flow rate. The enantiomeric fraction (EF) values were calculated with the valley drop method[55] as EF = AE1/(AE1 + AE2), where AE1 and AE2 are the peak area of the first (E1) and the second eluting (E2) atropisomers, respectively.
# [7] = female, CYP2A6-transgenic/Cyp2abfgs-null (KI)
# [8] = male, CYP2A6-transgenic/Cyp2abfgs-null (KI)
# [9] = two-way ANOVA with Bonferroni correction
Structure (SMILES),"concentration at 24 h [1, 7]","concentration at 24 h ([1]; female, Cyp2abfgs-null (KO))",concentration at 24 h ([1]; female),"concentration at 24 h [1, 8]","concentration at 24 h ([1]; male, Cyp2abfgs-null (KO))",concentration at 24 h ([1]; male),Rank among PCB95 metabolites formed by liver microsomes [2],also measured
"Oc1c(Cl)cc(Cl)c(-c2cc(Cl)ccc2Cl)c1Cl [3-103, 2,4,6-trichloro-3-(2,5-dichlorophenyl)phenol]",17 ± 11 ng/g,14 ± 7 ng/g,14 ± 6 ng/g,6 ± 6 ng/g,6 ± 2 ng/g,7 ± 4 ng/g,,
"Oc1cc(Cl)c(-c2c(Cl)ccc(Cl)c2Cl)cc1Cl [4'-95, 2,2′,3,5′,6-pentachlorobiphenyl-4′-ol]",764 ± 831 ng/g,414 ± 254 ng/g,356 ± 192 ng/g,298 ± 240 ng/g,447 ± 159 ng/g,452 ± 269 ng/g,minor metabolites,Rank among PCB95 metabolites formed by human liver microsomes and recombinant P450 (CYP2A6) (CYP2A6): major metabolite
"Oc1c(O)c(Cl)c(-c2cc(Cl)ccc2Cl)c(Cl)c1Cl [4,5-95, 3,4,6-trichloro-5-(2,5-dichlorophenyl)benzene-1,2-diol]",1670 ± 1290 ng/g,527 ± 255 ng/g,1090 ± 492 ng/g,570 ± 376 ng/g,1030 ± 507 ng/g,1410 ± 574 ng/g,,"Rank among OH-PCB95 metabolites in intestinal content ([1]; all intestinal content samples, all exposure groups): major metabolite"
"Oc1cc(Cl)c(-c2cc(Cl)ccc2Cl)c(Cl)c1Cl [4-95, 2,2′,3,5′,6-pentachlorobiphenyl-4-ol]",434 ± 352 ng/g,192 ± 70 ng/g,248 ± 109 ng/g,160 ± 134 ng/g,177 ± 68 ng/g,238 ± 134 ng/g,minor metabolites,
"Oc1cc(Cl)c(Cl)c(-c2cc(Cl)ccc2Cl)c1Cl [5-95, 2,2′,3,5′,6-pentachlorobiphenyl-5-ol]",934 ± 790 ng/g,359 ± 147 ng/g,544 ± 295 ng/g,300 ± 256 ng/g,333 ± 123 ng/g,424 ± 279 ng/g,major PCB95 metabolite,Rank among PCB95 metabolites in feces [3]: major metabolite; Rank among PCB95 metabolites in feces [4]: major metabolite; Rank among PCB95 metabolites formed by hepatic microsomes [5]: major PCB95 metabolite
"Clc1ccc(Cl)c(-c2c(Cl)ccc(Cl)c2Cl)c1 [PCB95, 2,2′,3,5′,6-pentachlorobiphenyl]",110 ± 95 ng/g,26 ± 20 ng/g,26 ± 18 ng/g,33 ± 48 ng/g,139 ± 265 ng/g,39 ± 40 ng/g,,"Enantiomeric fraction (EF) of PCB95 residues in the intestinal content ([6]; FKI (n=4)): 0.44±0.03; Enantiomeric fraction (EF) of PCB95 residues in the intestinal content ([6]; FKO (n=6)): 0.44±0.05; Enantiomeric fraction (EF) of PCB95 residues in the intestinal content ([6]; FWT (n=6), 1 mg/kg): 0.39±0.05 and 0.39; Enantiomeric fraction (EF) of PCB95 residues in the intestinal content ([6]; MKI (n=5)): 0.40±0.03; Enantiomeric fraction (EF) of PCB95 residues in the intestinal content ([6]; MKO (n=7), 1 mg/kg): 0.45±0.04 and 0.45; Enantiomeric fraction (EF) of PCB95 residues in the intestinal content ([6]; MWT (n=5)): 0.41±0.05; PCB95 levels in the intestinal content, FKI vs MKI mice [1, 9]: higher; PCB95 levels in the intestinal content, MKO vs MKI mice [1, 9]: significantly higher"
Clc1ccc(Cl)c(-c2c(Cl)ccc(Cl)c2Cl)c1 [aS-PCB95],,,,,,,,"Atropisomeric enrichment in intestinal content ([6]; all intestinal content samples, irrespective of sex and genotype): enriched"
